# From publication PMC4032265 (PLoS ONE, 2014)
# Tests used:
# α2A adrenergic receptor = target: T1, α2A adrenergic receptor (Homo sapiens, UniProt P08913); experiment: PDSP radioligand binding, α2A; conditions: read-out: % inhibition at 10 µM; single concentration 10 µM
# T1 sequence (P08913 1-465): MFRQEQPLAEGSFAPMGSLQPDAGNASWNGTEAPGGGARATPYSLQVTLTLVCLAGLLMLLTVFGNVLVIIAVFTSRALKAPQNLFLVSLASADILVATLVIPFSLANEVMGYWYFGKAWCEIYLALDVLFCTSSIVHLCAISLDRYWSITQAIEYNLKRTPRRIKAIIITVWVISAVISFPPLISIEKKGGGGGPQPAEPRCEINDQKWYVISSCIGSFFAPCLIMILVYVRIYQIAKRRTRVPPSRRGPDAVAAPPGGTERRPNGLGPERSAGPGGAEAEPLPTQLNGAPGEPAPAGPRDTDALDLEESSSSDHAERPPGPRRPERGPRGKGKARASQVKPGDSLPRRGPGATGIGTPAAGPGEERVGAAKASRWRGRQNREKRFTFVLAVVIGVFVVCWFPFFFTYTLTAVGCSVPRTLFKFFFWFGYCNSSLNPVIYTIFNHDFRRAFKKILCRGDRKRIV
# α2C adrenergic receptor = target: T2, α2C adrenergic receptor (Homo sapiens, UniProt P18825); experiment: PDSP radioligand binding, α2C
# T2 sequence (P18825 1-462): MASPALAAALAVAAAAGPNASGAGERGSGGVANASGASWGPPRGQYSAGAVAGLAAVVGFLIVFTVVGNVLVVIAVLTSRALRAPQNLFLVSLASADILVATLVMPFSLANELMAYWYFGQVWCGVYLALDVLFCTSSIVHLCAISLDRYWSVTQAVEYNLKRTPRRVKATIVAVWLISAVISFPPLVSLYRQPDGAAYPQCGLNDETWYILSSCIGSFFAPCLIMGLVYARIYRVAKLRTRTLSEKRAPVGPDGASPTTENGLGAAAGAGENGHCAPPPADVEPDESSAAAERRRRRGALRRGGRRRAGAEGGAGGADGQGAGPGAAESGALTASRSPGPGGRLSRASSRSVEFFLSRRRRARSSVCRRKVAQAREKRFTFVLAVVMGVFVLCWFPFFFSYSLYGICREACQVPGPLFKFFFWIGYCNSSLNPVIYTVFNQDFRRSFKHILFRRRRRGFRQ
# β3 adrenergic receptor = β3 adrenergic receptor (Homo sapiens, UniProt P13945); experiment: PDSP radioligand binding, β3
# [1] = target: T3, 5HT1A serotonergic receptor (Homo sapiens, UniProt P08908); experiment: PDSP radioligand binding, 5HT1A; conditions: read-out: % inhibition at 10 µM; single concentration 10 µM
# T3 sequence (P08908 1-422): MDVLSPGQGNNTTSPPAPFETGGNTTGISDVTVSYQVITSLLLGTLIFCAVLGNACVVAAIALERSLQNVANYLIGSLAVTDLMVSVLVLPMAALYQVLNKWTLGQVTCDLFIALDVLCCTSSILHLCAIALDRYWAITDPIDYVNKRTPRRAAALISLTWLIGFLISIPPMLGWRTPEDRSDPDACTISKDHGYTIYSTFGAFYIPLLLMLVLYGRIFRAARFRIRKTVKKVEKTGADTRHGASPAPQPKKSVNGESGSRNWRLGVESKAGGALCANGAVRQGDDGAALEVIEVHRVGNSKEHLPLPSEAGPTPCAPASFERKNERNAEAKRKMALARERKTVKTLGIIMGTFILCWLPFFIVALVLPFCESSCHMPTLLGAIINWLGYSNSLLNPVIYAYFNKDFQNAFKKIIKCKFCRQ
# [2] = target: 5HT7 serotonergic receptor (Homo sapiens, UniProt P34969); experiment: PDSP radioligand binding, 5HT7; conditions: read-out: % inhibition at 10 µM; single concentration 10 µM
# α1A adrenergic receptor = target: T4, α1A adrenergic receptor (Homo sapiens, UniProt P35348); experiment: PDSP radioligand binding, α1A; conditions: read-out: % inhibition at 10 µM; single concentration 10 µM
# T4 sequence (P35348 1-466): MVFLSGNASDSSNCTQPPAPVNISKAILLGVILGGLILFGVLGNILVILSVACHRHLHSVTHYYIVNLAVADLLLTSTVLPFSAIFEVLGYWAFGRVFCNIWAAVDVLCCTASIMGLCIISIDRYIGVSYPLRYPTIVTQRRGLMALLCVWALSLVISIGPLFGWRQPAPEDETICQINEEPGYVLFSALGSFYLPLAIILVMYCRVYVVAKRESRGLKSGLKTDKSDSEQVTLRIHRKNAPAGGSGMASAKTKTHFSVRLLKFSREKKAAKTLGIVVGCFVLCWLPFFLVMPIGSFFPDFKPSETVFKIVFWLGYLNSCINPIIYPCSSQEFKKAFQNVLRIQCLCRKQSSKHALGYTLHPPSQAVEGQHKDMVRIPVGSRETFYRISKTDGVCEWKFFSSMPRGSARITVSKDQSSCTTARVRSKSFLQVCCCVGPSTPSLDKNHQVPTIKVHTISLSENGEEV
# [3] = target: M3 muscarinic acetylcholine receptor (Homo sapiens, UniProt P20309); experiment: PDSP radioligand binding, M3; conditions: read-out: % inhibition at 10 µM; single concentration 10 µM
# [4] = target: H1 histaminergic receptor (Homo sapiens, UniProt P35367); experiment: PDSP radioligand binding, H1; conditions: read-out: % inhibition at 10 µM; single concentration 10 µM
# D4 dopaminergic receptor = target: T5, D4 dopaminergic receptor (Homo sapiens, UniProt P21917); experiment: PDSP radioligand binding, D4; conditions: read-out: % inhibition at 10 µM; single concentration 10 µM
# T5 sequence (P21917 1-419): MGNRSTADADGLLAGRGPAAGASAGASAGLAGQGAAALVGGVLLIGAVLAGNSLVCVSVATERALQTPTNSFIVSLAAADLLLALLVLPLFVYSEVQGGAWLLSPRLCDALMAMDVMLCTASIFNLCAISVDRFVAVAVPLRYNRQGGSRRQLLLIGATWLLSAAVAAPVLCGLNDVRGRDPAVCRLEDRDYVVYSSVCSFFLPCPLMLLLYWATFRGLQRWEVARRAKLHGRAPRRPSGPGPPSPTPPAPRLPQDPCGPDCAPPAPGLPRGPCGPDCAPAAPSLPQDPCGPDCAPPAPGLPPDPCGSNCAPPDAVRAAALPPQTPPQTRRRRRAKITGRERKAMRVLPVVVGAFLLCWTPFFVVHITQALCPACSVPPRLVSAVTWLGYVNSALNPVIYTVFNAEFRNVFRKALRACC
# D5 dopaminergic receptor = D5 dopaminergic receptor (Homo sapiens, UniProt P21918); experiment: PDSP radioligand binding, D5; conditions: read-out: % inhibition at 10 µM; single concentration 10 µM
# [5] = target: 5HT1B serotonergic receptor (Homo sapiens, UniProt P28222); experiment: PDSP radioligand binding, 5HT1B; conditions: read-out: % inhibition at 10 µM; single concentration 10 µM
# [6] = target: 5HT1E serotonergic receptor (Homo sapiens, UniProt P28566); experiment: PDSP radioligand binding, 5HT1E; conditions: read-out: % inhibition at 10 µM; single concentration 10 µM
# [7] = target: 5HT2A serotonergic receptor (Homo sapiens, UniProt P28223); experiment: PDSP radioligand binding, 5HT2A; conditions: read-out: % inhibition at 10 µM; single concentration 10 µM
# µ opioid receptor = µ opioid receptor (Homo sapiens, UniProt P35372); experiment: PDSP radioligand binding, µ opioid; conditions: read-out: % inhibition at 10 µM; single concentration 10 µM
# [8] = full concentration-response curves, n = 3-6 unless noted
# [9] = read-out: % inhibition at 10 µM, single concentration 10 µM
# Sequence of β3 adrenergic receptor (P13945 whole entry): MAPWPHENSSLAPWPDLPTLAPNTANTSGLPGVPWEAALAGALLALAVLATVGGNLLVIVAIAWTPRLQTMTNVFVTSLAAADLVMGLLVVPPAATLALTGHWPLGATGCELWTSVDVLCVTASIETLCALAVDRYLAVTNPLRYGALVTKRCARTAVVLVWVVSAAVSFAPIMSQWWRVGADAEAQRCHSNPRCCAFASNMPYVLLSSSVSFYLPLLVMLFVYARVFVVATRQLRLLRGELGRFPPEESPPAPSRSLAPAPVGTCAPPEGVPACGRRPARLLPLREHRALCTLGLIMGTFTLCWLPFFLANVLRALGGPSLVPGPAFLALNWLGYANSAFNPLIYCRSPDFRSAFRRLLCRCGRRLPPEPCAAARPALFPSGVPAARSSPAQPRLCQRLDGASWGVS
# Sequence of H1 histaminergic receptor (P35367 whole entry): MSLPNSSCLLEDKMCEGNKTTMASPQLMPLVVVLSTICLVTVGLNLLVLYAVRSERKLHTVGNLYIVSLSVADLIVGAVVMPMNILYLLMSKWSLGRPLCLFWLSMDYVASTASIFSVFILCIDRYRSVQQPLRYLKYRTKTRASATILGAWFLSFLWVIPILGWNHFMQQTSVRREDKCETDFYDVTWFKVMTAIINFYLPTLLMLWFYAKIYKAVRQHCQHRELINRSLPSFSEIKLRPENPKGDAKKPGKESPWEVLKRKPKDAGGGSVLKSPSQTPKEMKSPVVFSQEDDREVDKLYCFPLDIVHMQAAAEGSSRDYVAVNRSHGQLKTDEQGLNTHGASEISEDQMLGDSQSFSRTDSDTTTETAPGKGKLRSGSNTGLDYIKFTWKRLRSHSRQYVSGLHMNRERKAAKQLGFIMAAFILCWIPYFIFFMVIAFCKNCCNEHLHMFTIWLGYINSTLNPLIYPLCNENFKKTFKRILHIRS
# Sequence of 5HT7 serotonergic receptor (P34969 whole entry): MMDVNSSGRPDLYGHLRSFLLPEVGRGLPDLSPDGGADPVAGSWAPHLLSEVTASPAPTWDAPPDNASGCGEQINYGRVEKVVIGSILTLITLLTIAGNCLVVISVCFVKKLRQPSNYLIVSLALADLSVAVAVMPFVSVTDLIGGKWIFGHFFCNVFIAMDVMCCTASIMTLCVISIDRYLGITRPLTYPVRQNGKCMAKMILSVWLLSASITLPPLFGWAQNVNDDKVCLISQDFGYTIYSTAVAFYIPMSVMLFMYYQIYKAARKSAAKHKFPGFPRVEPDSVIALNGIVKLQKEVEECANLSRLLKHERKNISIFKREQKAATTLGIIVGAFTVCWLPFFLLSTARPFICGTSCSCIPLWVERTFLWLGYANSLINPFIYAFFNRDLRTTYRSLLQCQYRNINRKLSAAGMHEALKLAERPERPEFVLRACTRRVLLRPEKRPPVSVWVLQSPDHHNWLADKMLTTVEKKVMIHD
# Sequence of M3 muscarinic acetylcholine receptor (P20309 whole entry): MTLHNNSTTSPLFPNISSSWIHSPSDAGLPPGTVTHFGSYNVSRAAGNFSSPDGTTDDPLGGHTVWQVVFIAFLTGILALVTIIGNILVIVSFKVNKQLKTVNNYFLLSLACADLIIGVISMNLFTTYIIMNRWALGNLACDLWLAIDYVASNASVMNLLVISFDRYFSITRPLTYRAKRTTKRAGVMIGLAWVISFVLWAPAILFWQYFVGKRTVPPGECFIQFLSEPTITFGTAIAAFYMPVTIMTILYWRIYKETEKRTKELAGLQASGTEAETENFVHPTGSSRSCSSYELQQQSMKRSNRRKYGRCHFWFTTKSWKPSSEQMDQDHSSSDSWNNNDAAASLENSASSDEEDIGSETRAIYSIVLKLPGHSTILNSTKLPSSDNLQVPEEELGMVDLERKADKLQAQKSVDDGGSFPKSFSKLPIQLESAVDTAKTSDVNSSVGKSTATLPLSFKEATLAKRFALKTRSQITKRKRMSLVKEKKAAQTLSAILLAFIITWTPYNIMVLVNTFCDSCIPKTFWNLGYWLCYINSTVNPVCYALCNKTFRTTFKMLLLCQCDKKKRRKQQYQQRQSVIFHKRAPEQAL
# Sequence of µ opioid receptor (P35372 whole entry): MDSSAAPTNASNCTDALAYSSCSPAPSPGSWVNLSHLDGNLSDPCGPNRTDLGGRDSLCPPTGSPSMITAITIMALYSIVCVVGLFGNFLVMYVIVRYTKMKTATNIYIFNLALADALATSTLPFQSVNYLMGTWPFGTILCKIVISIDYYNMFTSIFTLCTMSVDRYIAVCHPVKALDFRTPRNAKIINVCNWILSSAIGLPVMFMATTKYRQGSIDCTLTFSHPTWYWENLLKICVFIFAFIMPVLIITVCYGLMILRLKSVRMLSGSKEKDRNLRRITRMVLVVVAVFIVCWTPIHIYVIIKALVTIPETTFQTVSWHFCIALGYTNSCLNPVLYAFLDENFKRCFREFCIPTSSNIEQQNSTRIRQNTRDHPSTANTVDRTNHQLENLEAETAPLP
# Sequence of D5 dopaminergic receptor (P21918 whole entry): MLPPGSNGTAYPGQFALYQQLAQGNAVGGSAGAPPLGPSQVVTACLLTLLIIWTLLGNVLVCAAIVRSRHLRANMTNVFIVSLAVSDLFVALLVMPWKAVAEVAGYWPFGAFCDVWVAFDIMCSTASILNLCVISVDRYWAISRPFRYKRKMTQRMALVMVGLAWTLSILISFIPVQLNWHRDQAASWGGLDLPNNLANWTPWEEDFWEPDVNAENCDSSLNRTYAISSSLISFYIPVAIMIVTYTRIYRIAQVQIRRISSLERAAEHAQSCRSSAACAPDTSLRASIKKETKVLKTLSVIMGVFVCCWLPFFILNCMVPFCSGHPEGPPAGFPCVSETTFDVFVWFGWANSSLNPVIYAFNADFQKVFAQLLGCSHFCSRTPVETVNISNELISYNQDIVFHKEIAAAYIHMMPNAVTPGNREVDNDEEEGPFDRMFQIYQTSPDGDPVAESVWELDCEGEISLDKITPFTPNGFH
# Sequence of 5HT1B serotonergic receptor (P28222 whole entry): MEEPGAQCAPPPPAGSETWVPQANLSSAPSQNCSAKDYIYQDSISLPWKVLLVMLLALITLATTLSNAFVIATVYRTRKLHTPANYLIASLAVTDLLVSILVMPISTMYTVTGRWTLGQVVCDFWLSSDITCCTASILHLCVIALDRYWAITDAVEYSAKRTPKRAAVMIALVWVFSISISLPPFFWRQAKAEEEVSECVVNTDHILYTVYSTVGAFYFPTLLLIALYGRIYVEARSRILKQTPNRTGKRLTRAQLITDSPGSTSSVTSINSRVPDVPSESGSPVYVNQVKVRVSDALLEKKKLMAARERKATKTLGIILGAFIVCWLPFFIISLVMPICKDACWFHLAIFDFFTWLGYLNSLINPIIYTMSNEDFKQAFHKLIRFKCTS
# Sequence of 5HT1E serotonergic receptor (P28566 whole entry): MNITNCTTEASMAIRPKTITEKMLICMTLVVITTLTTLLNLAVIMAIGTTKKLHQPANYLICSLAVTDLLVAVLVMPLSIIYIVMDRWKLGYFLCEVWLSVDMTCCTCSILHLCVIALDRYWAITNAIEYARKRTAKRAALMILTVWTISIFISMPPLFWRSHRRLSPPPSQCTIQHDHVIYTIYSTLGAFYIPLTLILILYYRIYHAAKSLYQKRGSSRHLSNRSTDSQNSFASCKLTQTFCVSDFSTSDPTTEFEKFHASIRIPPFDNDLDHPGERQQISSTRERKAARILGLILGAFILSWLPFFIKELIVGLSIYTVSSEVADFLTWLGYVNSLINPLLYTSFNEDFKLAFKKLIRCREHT
# Sequence of 5HT2A serotonergic receptor (P28223 whole entry): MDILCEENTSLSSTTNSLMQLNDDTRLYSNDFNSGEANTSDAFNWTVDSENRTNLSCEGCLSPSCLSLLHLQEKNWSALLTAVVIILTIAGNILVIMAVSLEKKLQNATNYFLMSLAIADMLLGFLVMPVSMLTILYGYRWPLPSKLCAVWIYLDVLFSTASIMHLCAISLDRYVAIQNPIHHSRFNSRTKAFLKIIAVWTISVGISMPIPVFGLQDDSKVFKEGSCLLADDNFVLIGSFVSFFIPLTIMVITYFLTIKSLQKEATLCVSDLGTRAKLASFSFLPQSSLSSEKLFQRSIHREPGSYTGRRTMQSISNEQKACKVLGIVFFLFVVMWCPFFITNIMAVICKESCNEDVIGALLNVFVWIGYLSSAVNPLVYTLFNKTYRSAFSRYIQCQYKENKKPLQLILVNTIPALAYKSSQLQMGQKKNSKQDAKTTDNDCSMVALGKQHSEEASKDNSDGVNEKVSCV
smiles,measurement,setting,value
CNC(=O)[C@@]12C[C@@H]1[C@@H](n1cnc3c(NCc4cccc(Cl)c4)nc(C#Cc4ccccc4Cl)nc31)[C@H](O)[C@@H]2O [Compound 3],inhibition at 10 µM,α2A adrenergic receptor,22%
same,Ki,α2C adrenergic receptor; [8],1810 ± 250 nM
same,inhibition at 10 µM,α2C adrenergic receptor; [9],57%
same,Ki,β3 adrenergic receptor; [8],1170 ± 190 nM
same,inhibition at 10 µM,β3 adrenergic receptor; [9],57%
same,inhibition at 10 µM,[1],6%
same,inhibition at 10 µM,[2],8%
same,inhibition at 10 µM,α1A adrenergic receptor,16%
same,inhibition at 10 µM,[3],5%
same,inhibition at 10 µM,[4],21%
same,inhibition at 10 µM,D4 dopaminergic receptor,1%
same,inhibition at 10 µM,D5 dopaminergic receptor,10%
same,inhibition at 10 µM,[5],0%
same,inhibition at 10 µM,[6],0%
same,inhibition at 10 µM,[7],26%
same,inhibition at 10 µM,µ opioid receptor,23%
